Assay [1] deals with A. baumannii 1258916. Put plainly: microbe, parasite or virus in culture. It counts as cell-based, Acinetobacter baumannii. Particulars: Acinetobacter baumannii, 1258916, read-out: MIC, A. baumannii 1258916.
For assay [2], the target named is T1, PBP3 from Acinetobacter baumannii (ATCC 19606) (Acinetobacter baumannii, UniProt A0ABX6CK25).
T1 sequence (A0ABX6CK25 64-610): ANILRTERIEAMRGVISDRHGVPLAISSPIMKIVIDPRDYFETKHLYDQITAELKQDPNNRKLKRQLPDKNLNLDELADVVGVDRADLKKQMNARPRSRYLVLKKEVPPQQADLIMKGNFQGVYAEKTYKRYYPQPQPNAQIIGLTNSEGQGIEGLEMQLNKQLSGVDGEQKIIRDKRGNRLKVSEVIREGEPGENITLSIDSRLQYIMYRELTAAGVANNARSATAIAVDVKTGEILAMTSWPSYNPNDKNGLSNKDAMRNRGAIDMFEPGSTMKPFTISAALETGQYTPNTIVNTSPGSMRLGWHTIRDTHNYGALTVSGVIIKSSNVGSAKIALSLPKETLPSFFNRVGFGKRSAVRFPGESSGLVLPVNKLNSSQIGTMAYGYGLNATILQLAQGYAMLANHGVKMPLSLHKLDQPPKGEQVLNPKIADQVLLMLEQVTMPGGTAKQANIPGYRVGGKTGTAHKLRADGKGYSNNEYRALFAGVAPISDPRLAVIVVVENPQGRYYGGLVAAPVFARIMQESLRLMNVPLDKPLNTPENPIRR
The experiment in a line: Bocillin-FL fluorescence polarization competition binding, A. baumannii PBP3. The conditions noted are these: fluorescence polarization competition binding assay using Bocillin-FL; read-out: A. baumannii PBP3 Potency. An outline of the steps:
(§1)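 Purified PBPs pre-incubated with inhibitor (E. coli PBP3 1.5 μM, 30 min; P. aeruginosa PBP3 0.75 μM, A. baumannii PBP1a 1 μM and PBP3 0.2 μM, 15 min), then Bocillin-FL 0.1 μM (0.05 μM for PBP1a) added; FP read up to 60 min. EC50 = concentration halving bound Bocillin-FL.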

In assay [3] the test system is P. aeruginosa CDC-0054. The experiment in a line: microbe, parasite or virus in culture. It is filed as cell-based. The conditions noted are these: Pseudomonas aeruginosa, CDC0054, read-out: Minimum inhibitory concentration, P. aeruginosa CDC-0054.
Assay [4] relates to A. baumannii ATCC 17978. The experiment in a line: microbe, parasite or virus in culture. It counts as cell-based. Particulars: Acinetobacter baumannii, ATCC17978, read-out: MIC, A. baumannii ATCC 17978.
Assay [5] deals with A. baumannii CDC-0045. The experiment in a line: microbe, parasite or virus in culture. It is filed as cell-based. The conditions noted are these: Acinetobacter baumannii, CDC0045, read-out: MIC, A. baumannii CDC-0045.
Assay [6] relates to P. aeruginosa ATCC 27853. The experiment in a line: microbe, parasite or virus in culture. It counts as cell-based. Particulars: Pseudomonas aeruginosa, ATCC27853, read-out: Minimum inhibitory concentration, P. aeruginosa ATCC 27853.
In assay [7] the test system is A. baumannii CDC-0036. Put plainly: microbe, parasite or virus in culture. Particulars: Acinetobacter baumannii, CDC0036, read-out: MIC, A. baumannii CDC-0036. It counts as cell-based.
Assay [8] addresses T2, PBP3 from Pseudomonas aeruginosa (PAO1) (Pseudomonas aeruginosa, UniProt G3XD46).
T2 construct: made in house
The experiment in a line: Bocillin-FL fluorescence polarization competition binding, P. aeruginosa PBP3. The conditions noted are these: Binding affinity to P. aeruginosa PBP3; fluorescence polarization competition binding assay using Bocillin-FL; read-out: P. aeruginosa PBP3 Potency. The gist of the method: as §1
(In general: Polarisation of emitted light reports the rotation of a fluorescent probe.)

Assay [9] relates to B. thailandensis ATCC 700388. The experiment in a line: microbe, parasite or virus in culture. It counts as cell-based. Particulars: Burkholderia thailandensis, ATCC700388, read-out: Minimum inhibitory concentration (MIC), B. thailandensis ATCC 700388.
The subject of assay [10] is P. aeruginosa CDC-0090. The experiment in a line: microbe, parasite or virus in culture. It is filed as cell-based. Particulars: Pseudomonas aeruginosa, CDC0090, read-out: Minimum inhibitory concentration, P. aeruginosa CDC-0090.

≈ marks a conversion by molar mass, not a printed value.

T2 sequence (G3XD46 whole entry): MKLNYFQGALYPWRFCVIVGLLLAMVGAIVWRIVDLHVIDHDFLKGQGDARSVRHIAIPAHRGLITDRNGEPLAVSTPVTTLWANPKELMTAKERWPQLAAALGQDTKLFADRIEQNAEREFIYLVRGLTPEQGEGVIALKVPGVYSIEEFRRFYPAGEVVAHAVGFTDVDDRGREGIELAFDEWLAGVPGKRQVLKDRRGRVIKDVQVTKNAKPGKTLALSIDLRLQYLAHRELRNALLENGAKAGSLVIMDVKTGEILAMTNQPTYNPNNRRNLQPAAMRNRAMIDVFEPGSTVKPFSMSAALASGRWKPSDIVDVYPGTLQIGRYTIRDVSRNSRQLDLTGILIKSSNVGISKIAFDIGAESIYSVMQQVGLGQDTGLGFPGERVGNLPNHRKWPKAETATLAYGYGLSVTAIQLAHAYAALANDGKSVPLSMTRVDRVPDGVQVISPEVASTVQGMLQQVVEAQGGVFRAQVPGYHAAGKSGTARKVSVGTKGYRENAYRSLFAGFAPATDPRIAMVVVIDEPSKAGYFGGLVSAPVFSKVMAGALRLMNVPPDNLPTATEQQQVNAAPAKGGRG

Regarding `O=C(NCCCN1CCN(C(=O)N[C@H](C(=O)N[C@H]2Cc3ccc(F)c(C(=O)O)c3OB2O)c2cc(F)c(O)c(O)c2Cl)C1=O)Nc1ccc(O)cc1` [Example 283, (R)-3-((S)-2-(2-chloro-5-fluoro-3,4-dihydroxyphenyl)-2-(3-(3-(3-(4-hydroxyphenyl)ureido)propyl)-2-oxoimidazolidine-1-carboxamido)acetamido)-7-fluoro-2-hydroxy-3,4-dihydro-2H-benzo[e][1,2]oxaborinine-8-carboxylic acid], the MIC in assay [1], in assay [3], in [4], in assay [5], in [6] and in assay [7] was greater than 128 µg/mL each time. The MIC in assay [9] and in assay [10] was greater than 128 µg/mL each time. For the same compound, the IC50 in assay [2] and in assay [8] was 50 to 250 µM each time.
Take `O=C(NCCCN1CCN(C(=O)N[C@@H](C(=O)N[C@H]2Cc3ccc(F)c(C(=O)O)c3OB2O)c2cc(F)c(O)c(O)c2Cl)C1=O)Nc1ccc(O)cc1` [Example 284, (R)-3-((R)-2-(2-chloro-5-fluoro-3,4-dihydroxyphenyl)-2-(3-(3-(3-(4-hydroxyphenyl)ureido)propyl)-2-oxoimidazolidine-1-carboxamido)acetamido)-7-fluoro-2-hydroxy-3,4-dihydro-2H-benzo[e][1,2]oxaborinine-8-carboxylic acid]: the MIC was less than 1 µg/mL in [1]; less than 1 µg/mL in [3]; less than 1 µg/mL in assay [4]; less than 1 µg/mL in [5]; 2 to 4 µg/mL (≈ 2.68 to 5.36 µM) in assay [6]; less than 1 µg/mL in assay [7]. The MIC in assay [9] and in [10] was less than 1 µg/mL throughout. Moreover, the IC50 in assay [2] and in assay [8] was less than 10 µM each time.
For the compound `O=C(NCCCN1CCN(C(=O)NC(C(=O)N[C@H]2Cc3ccc(F)c(C(=O)O)c3OB2O)c2cc(F)c(O)c(O)c2Cl)C1=O)Nc1ccncc1` (stereo partly drawn) [Example 285, (3R)-3-(2-(2-chloro-5-fluoro-3,4-dihydroxyphenyl)-2-(2-oxo-3-(3-(3-(pyridin-4-yl)ureido)propyl)imidazolidine-1-carboxamido)acetamido)-7-fluoro-2-hydroxy-3,4-dihydro-2H-benzo[e][1,2]oxaborinine-8-carboxylic acid], the MIC in assay [1] is 2 to 4 µg/mL (≈ 2.73 to 5.47 µM); in [3], 8 to 16 µg/mL (≈ 10.9 to 21.9 µM); in assay [4], less than 1 µg/mL; in assay [5] it was 2 to 4 µg/mL (≈ 2.73 to 5.47 µM); in assay [6], 8 to 16 µg/mL (≈ 10.9 to 21.9 µM); in [7] it was 8 to 16 µg/mL (≈ 10.9 to 21.9 µM). Moreover, the MIC in assay [9] and in assay [10] was 2 to 4 µg/mL (≈ 2.73 to 5.47 µM) each time. Further, the IC50 in [2] and in assay [8] was less than 10 µM each time.
In the case of `O=C(NCCS(=O)(=O)N1CCN(C(=O)N[C@H](C(=O)N[C@H]2Cc3ccc(F)c(C(=O)O)c3OB2O)c2cc(F)c(O)c(O)c2Cl)C1=O)c1ccc(O)cc1` [Example 286, (R)-3-((S)-2-(2-chloro-5-fluoro-3,4-dihydroxyphenyl)-2-(3-((2-(4-hydroxybenzamido)ethyl)sulfonyl)-2-oxoimidazolidine-1-carboxamido)acetamido)-7-fluoro-2-hydroxy-3,4-dihydro-2H-benzo[e][1,2]oxaborinine-8-carboxylic acid], the MIC in assay [1], in assay [3], in [4], in assay [5], in [6] and in assay [7] was greater than 128 µg/mL each time. For the same compound, the MIC in assay [9] and in [10] was greater than 128 µg/mL each time. Also, the IC50 in assay [2] is 50 to 250 µM; in assay [8], greater than 250 µM.
In the case of `O=C(NCCS(=O)(=O)N1CCN(C(=O)N[C@@H](C(=O)N[C@H]2Cc3ccc(F)c(C(=O)O)c3OB2O)c2cc(F)c(O)c(O)c2Cl)C1=O)c1ccc(O)cc1` [Example 287, (R)-3-((R)-2-(2-chloro-5-fluoro-3,4-dihydroxyphenyl)-2-(3-((2-(4-hydroxybenzamido)ethyl)sulfonyl)-2-oxoimidazolidine-1-carboxamido)acetamido)-7-fluoro-2-hydroxy-3,4-dihydro-2H-benzo[e][1,2]oxaborinine-8-carboxylic acid], the MIC in [1] is less than 1 µg/mL; in assay [3], 2 to 4 µg/mL (≈ 2.56 to 5.12 µM); in assay [4], less than 1 µg/mL; in assay [5], less than 1 µg/mL; in assay [6], 2 to 4 µg/mL (≈ 2.56 to 5.12 µM); in assay [7] it was 2 to 4 µg/mL (≈ 2.56 to 5.12 µM). For the same compound, the MIC in assay [9] and in [10] was 2 to 4 µg/mL (≈ 2.56 to 5.12 µM) throughout. In addition, the IC50 in assay [2] and in assay [8] was less than 10 µM throughout.
For `O=C(NCCS(=O)(=O)N1CCN(C(=O)NC(C(=O)N[C@H]2Cc3ccc(F)c(C(=O)O)c3OB2O)c2cc(F)c(O)c(O)c2Cl)C1=O)c1ccncc1` (stereo partly drawn) [Example 288, (3R)-3-(2-(2-chloro-5-fluoro-3,4-dihydroxyphenyl)-2-(3-((2-(isonicotinamido)ethyl)sulfonyl)-2-oxoimidazolidine-1-carboxamido)acetamido)-7-fluoro-2-hydroxy-3,4-dihydro-2H-benzo[e][1,2]oxaborinine-8-carboxylic acid], the MIC in assay [1] is less than 1 µg/mL; in assay [3], 2 to 4 µg/mL (≈ 2.61 to 5.22 µM); in assay [4] it was less than 1 µg/mL; in assay [5], less than 1 µg/mL; in assay [6] it was 2 to 4 µg/mL (≈ 2.61 to 5.22 µM); in assay [7], 2 to 4 µg/mL (≈ 2.61 to 5.22 µM). Also, the MIC in assay [9] and in [10] was 2 to 4 µg/mL (≈ 2.61 to 5.22 µM) throughout. Also, the IC50 in assay [2] and in [8] was less than 10 µM in each case.
Take `O=C(NCCS(=O)(=O)N1CCN(C(=O)NC(C(=O)N[C@H]2Cc3ccc(F)c(C(=O)O)c3OB2O)c2cc(F)c(O)c(O)c2Cl)C1=O)Nc1ccc(O)cc1` (stereo partly drawn) [Example 289, (3R)-3-(2-(2-chloro-5-fluoro-3,4-dihydroxyphenyl)-2-(3-((2-(3-(4-hydroxyphenyl)ureido)ethyl)sulfonyl)-2-oxoimidazolidine-1-carboxamido)acetamido)-7-fluoro-2-hydroxy-3,4-dihydro-2H-benzo[e][1,2]oxaborinine-8-carboxylic acid]: the MIC in [1] is less than 1 µg/mL; in [3], 2 to 4 µg/mL (≈ 2.51 to 5.02 µM); in [4] it was less than 1 µg/mL; in [5], 2 to 4 µg/mL (≈ 2.51 to 5.02 µM); in assay [6] it was 2 to 4 µg/mL (≈ 2.51 to 5.02 µM); in [7], 2 to 4 µg/mL (≈ 2.51 to 5.02 µM). Further, the MIC in [9] lay within 8 to 16 µg/mL (≈ 10 to 20.1 µM); in assay [10], 2 to 4 µg/mL (≈ 2.51 to 5.02 µM). Moreover, the IC50 in assay [2] and in assay [8] was less than 10 µM throughout.
Take `O=C(NCCS(=O)(=O)N1CCN(C(=O)N[C@@H](C(=O)N[C@H]2Cc3ccc(F)c(C(=O)O)c3OB2O)c2cc(F)c(O)c(O)c2Cl)C1=O)Nc1ccncc1` [Example 290, (R)-3-((R)-2-(2-chloro-5-fluoro-3,4-dihydroxyphenyl)-2-(2-oxo-3-((2-(3-(pyridin-4-yl)ureido)ethyl)sulfonyl)imidazolidine-1-carboxamido)acetamido)-7-fluoro-2-hydroxy-3,4-dihydro-2H-benzo[e][1,2]oxaborinine-8-carboxylic acid]: the MIC in [1] is less than 1 µg/mL; in assay [3], 2 to 4 µg/mL (≈ 2.56 to 5.12 µM); in assay [4] it was less than 1 µg/mL; in assay [5], less than 1 µg/mL; in assay [6], 2 to 4 µg/mL (≈ 2.56 to 5.12 µM); in assay [7], 2 to 4 µg/mL (≈ 2.56 to 5.12 µM). The MIC in assay [9] and in assay [10] was 2 to 4 µg/mL (≈ 2.56 to 5.12 µM) in each case. The IC50 in assay [2] and in assay [8] was less than 10 µM in each case.

The record behind these values is patent US20240270762A1, “PENICILLIN-BINDING PROTEIN INHIBITORS” (priority 2021, published 2024).
